Source: patent US9464326B2, “Total and phosphorylated IL-1 receptor-associated kinase-1 and IL-1 receptor-associated kinase-4 as a biomarker for cancer progression and chemotherapy resistance” (University of Maryland, Baltimore, priority 2012, dated 2016)

Key:
Format in all cases: cell-based, human
melanoma cells = assay: Western blot of phosphorylated NF-KB; conditions: 48 hrs, vs DMSO, FIG. 7C
Description: FIG. 7. TLR and TLR signaling-related protein expression profiles on melanoma cell lines. (A) The expression levels of TLR1-TLR10 and various TLR-related proteins were examined by Western blot in samples from human melanoma cell lines. (B) The TLR1-TLR2 ligand Pam3CysK4 was added to A375 cells for 48 hrs. Cytokine and chemokine production by was determined using a Milliplex cytokine/chemokine array. (C) IRAK-1,-4 inhibitor or vehicle alone (DMSO) was added to melanoma cells for 48 hrs. The level of phosphorylated and non-phosphorylated p65 subunit of NF-KB was determined by Western blot. (D) Cytokine and chemokine levels in the supernatant A375 cell culture were examined using a Milliplex cytokine/chemokine array 48 hours after adding IRAK-1,-4 inhibitor or DMSO. ANOVA; **P<0.001, *P<0.05.
Total cell extracts were prepared from melanoma cells. […] Melanoma tissue arrays were purchased from US Biomax, Inc (Rockville, Md.). For immunohistochemical staining samples were stained with mouse monoclonal anti-human phosphor-IRAK.-4 antibody (Abnova; dilution, 3.5 μg/ml) or normal mouse serum. […] IHC specimens were analyzed using “quick score” system in which the intensity of the immunohistochemical reaction was scored by multiplying the intensity 1 (weak), 2 (moderate), and 3 (strong) and the proportion of cells staining positively 0 (<10%), 1 (10-25%), 2 (26-50%), 3 (51-75%) or 4 (>75%).

A375 melanoma cells = assay: Western blot of cleaved PARP and caspase-3; conditions: for levels of cleaved PARP and caspase-3: 48 hrs, FIG. 8D
Description: FIG. 8. […] (A) A375 and Malme-3M melanoma cells were cultured with or without 2.5 μM of IRAK-1,-4 and in the presence varying concentrations of vinblastine, cisplatin or 5′ Fluorouracil. Forty-eight hours later apoptosis was evaluated by staining cells with annexin-V and propidium iodide and analyzed by flow cytometry. (B) A375 cells were transfected via electroporation with siRNA-IRAK-1,-4. IRAK-1 protein levels were examined by Western blotting. […], A375-psiRNA-hIRAK-1, A375-psiRNA-hIRAK-4, or cells expressing both psiRNA-hIRAK-1 and -4 were cultured in the presence of vinblastine (100 nmol/L) for 48 hours and apoptosis was examined by flow cytometry. (C) A375 melanoma cells were cultured in the presence of vehicle alone (DMSO) or various concentrations of IRAK-1,-4. Forty-eight hours later cell lysates were used to analyze the expression of levels of cleaved PARP or caspase-3 by Western blots. (D) A375 melanoma cells were cultured with or without 2.5 μM of IRAK.-1,-4 and in the presence or absence of vinblastine for 48 hrs. PARP and caspase-3 levels were determined by Western blot.
Total cell extracts were prepared from melanoma cells. […] Melanoma tissue arrays were purchased from US Biomax, Inc (Rockville, Md.). For immunohistochemical staining samples were stained with mouse monoclonal anti-human phosphor-IRAK.-4 antibody (Abnova; dilution, 3.5 μg/ml) or normal mouse serum. Tissue histology sections (5-μm-thick) were deparaffinized, hydrated, heated in boiling 10 mmol/L sodium citrate (pH 6.0), for antigen retrieval, for 30 min and washed in Tris buffer. Peroxide blocking was done with 3% […] in methanol at room temperature for 15 min, followed by 10% fetal bovine serum in TBS-t for 30 min at room temperature. Primary antibody incubation was done overnight at 4° C. Secondary antibody incubation with horse anti-mouse (1:200; Vector Laboratories, Burlingame, Calif.) was done for 1 hr, followed by application of diaminobenzidine chromogen for 5 min. The slides were then counterstained with hematoxylin and topped with a coverslip. IHC specimens were analyzed using “quick score” system in which the intensity of the immunohistochemical reaction was scored by multiplying the intensity 1 (weak), 2 (moderate), and 3 (strong) and the proportion of cells staining positively 0 (<10%), 1 (10-25%), 2 (26-50%), 3 (51-75%) or 4 (>75%).

HSB-2 = assay: Proliferation (3H-thymidine) of HSB-2
Text: (§1) CCRF-CEM, CEM/C1, CEM/C2, CEM-C7, Jurkat, Loucy, Molt-4, HSB-2, SUP-T1, Hut 78, HH, Hut 102, MO, and H9 T-leukemia and T-lymphoma cell lines were purchased from the American Type Culture Collection (Manassas, Va., USA). All of the cell lines were initially expanded and cryopreserved within one month of receipt. Cells were typically used for 6 months at which time a fresh vial of cryopreserved cells was used. Total T cells from healthy donors were isolated via negative selection followed by positive selection using a CD3+ selection kit (Invitrogen, Carlsbad, Calif.). T cells were isolated from patients with T-ALL bone marrow or peripheral blood samples containing more than 70% leukemia cells using a CD2+ isolation kit (STEMCELL Technologies, Vancouver, Canada). All tissues were collected under institutional IRB-approved protocols and all participants gave written informed assent/consent. For in vitro experiments, T-ALL cells were cultured in AIM-V medium supplemented with 20% human AB serum in the presence of recombinant human stem cell factor (50 ng/mL; Amgen, Thousand Oaks, Calif.), insulin (20 nM; Sigma-Aldrich, St Louis, Mo., USA) and IL-7 (50 ng/mL; R&D Systems, Minneapolis, Minn., USA). In other experiments, protein lysate was collected using the Full Moon Biosystems (Sunnyvale, Calif., USA) buffer prior to protein examination by western blot or protein array.
(§2) Cells were cultured in a 96-well plate (Corning Costar, Corning, N.Y., USA) with various concentrations of TLR ligands 1-9, starting at 10 μg/ml, in a final volume of 200 ul. TLR ligands were diluted 2-fold. Cell lines (25-40×10^3/well) were cultured for 54 hours, whereas fresh patient-derived T-ALL cells (200×10^3/well) were cultured for 30 hours prior to adding [^3H]-thymidine for 18 hours. After this time point, cells were harvested with a Packard Filter-Mate-96 cell harvester (Perkin Elmer, Waltham, Mass., USA) and counted on Packard Top Count-NXT (Perkin Elmer, Waltham, Mass., USA). Results were expressed as average counts per minute (cpm). In some experiments CCRF-CEM cells were pre-treated with TLR1-TLR2 ligand (Pam3CysK4; 2.5 ug/ml) for 48 hrs, washed, and then cultured in the presence of varying concentrations of FBS. Forty-eight hours later, proliferation (±SD) was determined by ^3H-thymidine incorporation. Alternatively, apoptosis was measured by flow cytometry after staining cells with Annexin-V (BD Pharmingen, San Diego, Calif., USA) and propidium iodide (Sigma). Cell number was counted under microscopy by staining cells with trypan blue.
The following TLR ligands were purchased from Invivogen (San Diego, Calif., USA): tripalmitoyl-S-(bis(palmitoyloxy)propyl)-Cys-Ser-(Lys)3-Lys (TLR1-2); Poly I:C (TLR3); ultrapure S. Minnesota Lipopolysaccharide (TLR4); S. typhimurium flagellin (TLR5); FSL-1 (TLR2/6); Imiquimod (TLR7); ssRNA40/Lyovec (TLR8); CpG-ODN 2006 (TLR9).

Molt-4 = assay: Proliferation (3H-thymidine) of Molt-4; conditions: 3H-thymidine uptake, 72 h
Text: as §1, with “In other experiments, protein lysate was collected using the Full Moon Biosystems (Sunnyvale, Calif., USA) buffer prior to protein examination by western blot or protein array.” left out
(§3) Cells were cultured in a 96-well plate (Corning Costar, Corning, N.Y., USA) with various concentrations of TLR ligands 1-9, starting at 10 μg/ml, in a final volume of 200 ul. […] After this time point, cells were harvested with a Packard Filter-Mate-96 cell harvester (Perkin Elmer, Waltham, Mass., USA) and counted on Packard Top Count-NXT (Perkin Elmer, Waltham, Mass., USA). Results were expressed as average counts per minute (cpm). […] Forty-eight hours later, proliferation (±SD) was determined by ^3H-thymidine incorporation. Alternatively, apoptosis was measured by flow cytometry after staining cells with Annexin-V (BD Pharmingen, San Diego, Calif., USA) and propidium iodide (Sigma). Cell number was counted under microscopy by staining cells with trypan blue. […]

CEM-C2 = assay: Proliferation (3H-thymidine) of CEM-C2
Text: as §1
as §2, with “blue. […]” for “blue.”

HH = assay: Proliferation (3H-thymidine) of HH; conditions: 3H-thymidine uptake, 72 h
Text: as §1, with “In other experiments, protein lysate was collected using the Full Moon Biosystems (Sunnyvale, Calif., USA) buffer prior to protein examination by western blot or protein array.” left out
as §3

MO = assay: Proliferation (3H-thymidine) of MO; conditions: 3H-thymidine uptake, 72 h
Text: as §1, with “In other experiments, protein lysate was collected using the Full Moon Biosystems (Sunnyvale, Calif., USA) buffer prior to protein examination by western blot or protein array.” left out
as §3

| Compound | phosphorylated NF-KB (p-NF-KB) (melanoma cells) | levels of cleaved PARP and caspase-3 (A375 melanoma cells; 2.5 μmol/L IRAK-1,-4 inhibitor combined with vinblastine) | active caspase-3 (A375 melanoma cells; 10 μM, 48 h, FIG. 8C) | cleaved PARP (A375 melanoma cells; concentration-dependent, 48 h, FIG. 8C) | levels of cleaved PARP and caspase-3 (A375 melanoma cells; single agent alone) | Proliferative effects of TLR ligands (HSB-2; 3H-thymidine uptake, 72 h) | TLR ligand concentration in parentheses below the symbol (HSB-2; no unit in table (μg/ml)) | Proliferative effects of TLR ligands (Molt-4) | Proliferative effects of TLR ligands (CEM-C2; 3H-thymidine uptake, 72 h) | TLR ligand concentration in parentheses below the symbol (CEM-C2; no unit in table (μg/ml)) | Proliferative effects of TLR ligands (HH) | Proliferative effects of TLR ligands (MO) |
| --- | --- | --- | --- | --- | --- | --- | --- | --- | --- | --- | --- | --- |
| O=C(Nc1nc2ccccc2n1CCN1CCOCC1)c1cccc([N+](=O)[O-])c1 [IRAK-1,-4 inhibitor] | marked reduction | increased the levels | detected | Enhanced accumulation | little effect |  |  |  |  |  |  |  |
| tripalmitoyl-S-(bis(palmitoyloxy)propyl)-Cys-Ser-(Lys)3-Lys [Pam3Cysk4] |  |  |  |  |  | − (reduced proliferation) | (5) | ∘ | + (enhanced proliferation by 25% or greater) | (2.5) | ∘ | ∘ |
